Values quoted from earlier work in US11896701B2, “Method for dyeing keratin material, comprising the use of an organic C1-C6 alkoxy silane and tannic acid” (Henkel AG & Co. KGaA, priority 2019, dated 2024).
Values after ≈ are worked out from the molar mass of the structure shown.

Conditions: 25° C.

solubility in water | solubility in water (in words) | SMILES
above 40 g/L | – | O=[N+]([O-])c1cc([N+](=O)[O-])c2ccc(S(=O)(=O)O)cc2c1O [Acid Yellow 9, 8-hydroxy-5,7-dinitro-2-naphthalenesulfonic acid]
more than 7 g/L | – | O=S(=O)(O)c1ccc(N=Nc2c(O)ccc3ccccc23)cc1 [Acid Orange 7, 4-[(2-hydroxy-1-naphthyl)azo]benzenesulfonate]
– | readily soluble in water | O=C(O)C1=NN(c2ccc(S(=O)(=O)O)cc2)C(=O)C1N=Nc1ccc(S(=O)(=O)O)cc1 (stereo not shown) [Acid Yellow 23, 4,5-dihydro-5-oxo-1-(4-sulfophenyl)-4-((4-sulfophenyl)azo)-1H-pyrazole-3-carboxylic acid]

SMILES | solubility in water | solubility in water (in words)
Nc1cc(S(=O)(=O)O)cc2cc(S(=O)(=O)O)c(N=Nc3ccccc3)c(O)c12 [Acid Red 33, 5-amino-4-hydroxy-3-(phenylazo)-naphthalene-2,7-disulphonate] | 2500 µg/mL (≈ 5.9 mM) | –
